From paper PMC12040169 (PLOS Biology, 2025)

experiment: in vitro; conditions: human, hela cells, % viability

SMILES | viability at 28.5 h, 10 µM
CC(C)CNc1nnc(-c2ccccc2[N+](=O)[O-])s1 [CBK076755] | 82.1%
CS(=O)(=O)N1CC2(CCN(CCc3ccc(F)cc3)CC2)c2ccccc21 [CBK084103] | 93.3%
COC(=O)c1ccsc1NS(=O)(=O)c1cc(Cl)sc1Cl [CBK039062] | 88.2%
COc1cc(NC(=O)N[C@@H]2CN(C)C[C@H]2c2ccc(OC)c(OC)c2)cc(OC)c1 [CBK081112] | 93%
Cc1ccc2[nH]c(Cc3ccc(NC(=O)CCc4nc5ccccc5[nH]4)cc3)nc2c1 [CBK285801] | 87%
O=C(Nc1cccnc1)c1cc2cc(F)ccc2[nH]1 [CBK107272] | 93.2%
Cc1c(C(C)NCCc2nnc[nH]2)cnn1-c1ccc(C#N)cc1 (centres unmarked) [CBK304063] | 98.1%
Cn1ncc(Cl)c1C1CCCCCN1C(=O)c1cc(C2CC2)on1 (centres unmarked) [CBK284973] | 102%
COc1nccc(N2CCC3(CCCN(CC4CCC4)C3=O)C2)c1C#N (centres unmarked) [CBK306861] | 84.3%
O=C(O)CNC(=O)/C(=C\c1ccccc1F)NC(=O)c1ccccc1 [CBK263961] | 96.5%
O=C(O)c1ccc(NC(=O)c2cccc(-n3cnnc3)c2)cc1 [CBK270134] | 104%
CCOc1cc(/C=C2\N=C(c3ccc(OC)cc3)OC2=O)cc(Br)c1OCC(=O)OC [CBK102552] | 96.3%
Cc1ccc(NC(=O)Cn2cnc3c2c(=O)n(C)c(=O)n3C)nc1 [CBK133463] | 95.9%
CC(CNC(=O)c1cccn(CC(=O)Nc2ccc(F)cc2)c1=O)N1CCCCCC1 (centres unmarked) [CBK286123] | 97.5%
CCC(c1nc2ccccc2c(=O)n1-c1cccnc1)N1C(=O)c2ccccc2C1=O (centres unmarked) [CBK268300] | 99.1%
O=C(Nc1cccc2nsnc12)c1ccc(Cl)cc1 [CBK263793] | 96.1%
CCOc1cc(NC2CCN(C(=O)CC3CCCCC3)CC2)ncn1 [CBK305506] | 104%
O=C(c1cccnc1)N1CCCC(n2cnc3cc(F)ccc32)C1 (centres unmarked) [CBK284474] | 85.6%
c1ccc(-c2nccnc2NCc2ccco2)cc1 [CBK088642] | 94.3%
CCc1nccn1CC(=O)NC(Cc1ccsc1)c1nccs1 (centres unmarked) [CBK285139] | 111%
CCN1CCN(C(=O)c2cccc(N(C)C)c2)C(Cc2ccc(-c3ccncc3)cc2)C1=O (centres unmarked) [CBK285813] | 101%

SMILES | viability at 28.5 h, 10 µM
CCC1CN(c2cc(CO)c(F)cn2)CC2(CCOC2)O1 (centres unmarked) [CBK304757] | 92.9%
O=C(Nc1ccncc1)c1cccn(Cc2ccccc2F)c1=O [CBK287738] | 111%
c1ccc2c(c1)CCN(Cc1ccc3ccccc3c1)C2 [CBK126397] | 122%
O=S(=O)(CC(CN1CCCCC1)N1CCCCC1)c1ccc2ccccc2c1 (centres unmarked) [CBK267087] | 100%
CCNC(=O)N(C)C1CCN(c2ncnc3ccccc23)CC1 [CBK305537] | 110%
CCOC(=O)N1CCN(Cn2nc(COc3ccccc3)n(C)c2=S)CC1 [CBK265148] | 97.4%
CCOc1ccc2c(c1)cc(C(=O)N(C)CC(F)(F)F)n2C [CBK281509] | 80.7%
O=C1CC(N2CCN(CCc3ccncc3)CC2)C(=O)N1c1ccc(Cl)cc1 (centres unmarked) [CBK270078] | 85.6%
Cc1ccc(C(=O)Nc2nc3ccc(S(=O)(=O)N(C)C)cc3s2)cc1 [CBK287603] | 93.1%
O=C1CC(N2CCN(Cc3ccc4c(c3)OCO4)CC2)C(=O)N1c1ccc(Cl)c(Cl)c1 (centres unmarked) [CBK074549] | 99.4%
CC1CCc2c(sc3ncnc(OCC(=O)N(C)CCC#N)c23)C1 (centres unmarked) [CBK304976] | 89.8%
O=[N+]([O-])c1ccc(Sc2nnc(COc3ccccc3)n2-c2ccccc2)nc1 [CBK265041] | 85.8%
CCCn1c(O)cc(=O)nc1SCC(=O)NCc1ccc(OC)c(OC)c1 [CBK295592] | 101%
COCCNc1nc(-c2cccc3ccccc23)cnc1N [CBK063574] | 99.1%
O=C(O)CCSCC(=O)c1ccc(OC(F)F)cc1 [CBK286991] | 84.6%
Cc1cccc(OCC(C)NC(=O)N2CCCC2c2cnn(C)c2)c1 (centres unmarked) [CBK304100] | 91.6%
Cc1ccc(OCc2nnc(SCC(=O)c3ccc(Br)cc3)n2N)cc1 [CBK266482] | 99.5%
CC(C)(C)NC(=O)N1CCC(=O)N1 [CBK007341] | 95.9%
Cc1ccc(C2(O)CCN(Cc3cnn(C)c3C)CC2)cc1 [CBK282736] | 96.5%
O=[N+]([O-])c1ccc(NCCNC(=S)Nc2ccc(Cl)cc2)nc1 [CBK263594] | 85.8%
Nc1nnc(SCCN2C(=O)c3ccccc3S2(=O)=O)s1 [CBK267688] | 88.6%

SMILES | viability at 28.5 h, 10 µM
O=S(=O)(NCC1CCCO1)c1cccs1 (centres unmarked) [CBK044263] | 103%
O=C1c2ccccc2S(=O)(=O)N1c1ccc(F)cc1 [CBK113194] | 112%
Nc1nc(N)c2ncn([C@H]3C[C@@H](O)[C@@H](CO)O3)c2n1 [CBK201208] | 97.4%
O=C(Nc1ccccc1C(F)(F)F)NC1CC2CCCC(C1)N2C1CC1 (centres unmarked) [CBK143578] | 103%
Cc1ccc(-n2c(=O)[nH]cc(C(=O)Nc3ccc(C)c(F)c3)c2=O)cc1C [CBK287550] | 97.5%
Cc1nc(CCNc2ccc(-c3nc(C)c(C)c(=O)[nH]3)cn2)cs1 [CBK305497] | 107%
COCCNc1cccc(Cn2c(=O)n(C)c3c2c(=O)nc(OC)n3C)c1 [CBK022052] | 84.3%
O=c1/c(=C/c2ccc3c(c2)OCO3)sc2nc3cc(Br)cnc3n12 [CBK262550] | 106%
Cc1cc(C)n(CC(=O)N2CCCC2c2cc3cccnc3[nH]2)n1 (centres unmarked) [CBK285074] | 97.1%
CCCC(=O)N1CCC(c2cc3n(n2)[C@@H](C(F)(F)F)C[C@@H](C)N3)C1 (some centres unmarked) [CBK282237] | 99.2%
O=C(CSc1nnc(SCc2cccc3ccccc23)s1)Nc1ccccc1C(F)(F)F [CBK267575] | 103%
CC1CCCN(CC(=O)NCc2ccc(OCC(N)=O)cc2)CC1 (centres unmarked) [CBK305755] | 92.1%
COCCNC(=O)N1CCN(CCc2ccccc2)CC1 [CBK158909] | 97.3%
CC(=O)OC1CCn2c1nc1cc(C(F)(F)F)ccc12 (centres unmarked) [CBK115367] | 75.1%
COc1ccc(-c2noc(CSc3nc4ccccc4c(=O)n3-c3ccccc3)n2)cc1OC [CBK268667] | 100%
COc1ccc(CCN2CCC(Oc3cncc(OCC4COc5ccccc5O4)n3)C2)cc1OC (centres unmarked) [CBK084389] | 112%
CNC(=O)CCc1ccccc1NC(=O)NCCSc1ncn[nH]1 [CBK307253] | 89.9%
Cc1ccccc1Nc1nc(N)nc(CN2CC(C)OC(C)C2)n1 (centres unmarked) [CBK305856] | 105%
CN(C)Cc1ccc(C(=O)NCC(C)(C)N2CCCCC2)cc1 [CBK281865] | 104%
COc1cccc(-c2ccc(NS(=O)(=O)c3ccc4c(c3)CCC(=O)N4)cc2)c1 [CBK286373] | 87.1%
Cc1cc(S)c2cc(Br)ccc2n1 [CBK288445] | 80.5%

same assay, conditions: human, hela cells, % viability, bulk resorufin, single well

SMILES | viability at 28.5 h, 10 µM
O=C(O)Cn1cc(C(=O)c2cccs2)c2ccccc21 [CBK287110] | 91.9%
CNCCc1csc2ccccc12 [CBK027127C] | 118%
